Assay results published in US20200247855A1, “THERAPY AND DIAGNOSTICS” (OXFORD UNIVERSITY INNOVATION LIMITED, priority 2017, published 2020).
No end group written: not given here.

Target: T1, CCL8 (Homo sapiens, UniProt P80075)
T1 construct: SUMO (in-house protein only) (cleaved yes); made in house; host or cells: Escherichia coli RosettaGami 2 (DE3)
T1 sequence (P80075 24-99): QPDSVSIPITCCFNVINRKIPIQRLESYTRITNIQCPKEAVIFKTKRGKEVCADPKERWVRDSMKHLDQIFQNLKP
Experiment: Fluorescence polarisation (anisotropy) assay
Type: binding
Conditions: fluorescence polarisation displacement assay

EDEDYEDFFKPVTAYF-NH2 [BK1.1]
Displacement of FITC-labelled peptide from CCL8 by unlabelled peptide: indicate its binding
Displacement of FITC-labelled peptide from CCL8 by unlabelled peptide (listed as P672_PEP): able to displace labelled peptide bound to chemokine
